# Laboratory results from ChEMBL document CHEMBL3232974, “In vivo optimization of 2,3-diaminopyrazine Rho Kinase inhibitors for the treatment of glaucoma” (Bioorg Med Chem Lett, 2014).
# Tests used:
# [1] = Drug level in Dutch-Belted rabbit aqueous humor at 150 ug administered as topical ocular instillation after 30 mins by RP-HPLC analysis; format: ADME, Oryctolagus cuniculus, Aqueous humor of eyeball; details: topical or ocular, read-out: Drug uptake
# [2] = biological target: Rho-associated protein kinase 2 (Homo sapiens, UniProt O75116); assay: Inhibition of truncated ROCK-2 (unknown origin) after 60 mins by IMAP assay
# [3] = biological target: Rho-associated protein kinase 1 (Homo sapiens, UniProt Q13464); assay: Inhibition of truncated ROCK-1 (unknown origin)
# [4] = Aqueous solubility of the compound; format: physicochemical; details: buffer
# Cynomolgus monkey [5] = assay: Toxicity in cynomolgus monkey compound administered as topical ocular dose after 6 hrs; format: organism-based, Macaca fascicularis, Eye; details: in vivo, topical_or_ocular
# Cynomolgus monkey [6] = assay: Antiglaucoma activity in cynomolgus monkey assessed as reduction in intraocular pressure at MTD administered as topical ocular dose after 6 hrs relative to control; format: functional, Macaca fascicularis, Eye; set-up: scale not given: the % may be the effect or the level left
# Cavia porcellus [7] = species: Cavia porcellus; assay: Antiglaucoma activity in guinea pig assessed as hyperemia at 300 ug after 2 hrs relative to control; format: functional
# [8] = Drug level in Dutch-Belted rabbit aqueous humor at 100 ug administered as topical ocular instillation after 30 mins by RP-HPLC analysis; format: ADME, Oryctolagus cuniculus, Aqueous humor of eyeball; details: topical or ocular, read-out: Drug uptake
# Cavia porcellus [9] = species: Cavia porcellus; assay: Antiglaucoma activity in guinea pig assessed as hyperemia at 100 ug after 2 hrs relative to control; format: functional
# Cavia porcellus [10] = species: Cavia porcellus; assay: Antiglaucoma activity in guinea pig assessed as hyperemia at 30 ug after 2 hrs relative to control; format: functional
# Cavia porcellus [11] = species: Cavia porcellus; assay: Antiglaucoma activity in guinea pig assessed as lowest dose required for producing 100% hyperemia after 2 hrs; format: functional
# Homo sapiens [12] = assay: Antiglaucoma activity in human assessed as reduction in intraocular pressure at 0.25% solution administered as topical ocular dose after 21 days relative to control; format: functional, Eye; set-up: scale not given: the % may be the effect or the level left
# [13] = Drug level in Dutch-Belted rabbit aqueous humor at 300 ug administered as topical ocular instillation after 30 mins by RP-HPLC analysis; format: ADME, Oryctolagus cuniculus, Aqueous humor of eyeball; details: topical or ocular, read-out: Drug uptake
# Homo sapiens [14] = assay: Antiglaucoma activity in human assessed as reduction in intraocular pressure at 0.1% solution administered as topical ocular instillation relative to control; format: functional, Eye; set-up: scale not given: the % may be the effect or the level left
# Chain of Rho-associated protein kinase 1 (Q13464 whole entry, the tested form may be a part): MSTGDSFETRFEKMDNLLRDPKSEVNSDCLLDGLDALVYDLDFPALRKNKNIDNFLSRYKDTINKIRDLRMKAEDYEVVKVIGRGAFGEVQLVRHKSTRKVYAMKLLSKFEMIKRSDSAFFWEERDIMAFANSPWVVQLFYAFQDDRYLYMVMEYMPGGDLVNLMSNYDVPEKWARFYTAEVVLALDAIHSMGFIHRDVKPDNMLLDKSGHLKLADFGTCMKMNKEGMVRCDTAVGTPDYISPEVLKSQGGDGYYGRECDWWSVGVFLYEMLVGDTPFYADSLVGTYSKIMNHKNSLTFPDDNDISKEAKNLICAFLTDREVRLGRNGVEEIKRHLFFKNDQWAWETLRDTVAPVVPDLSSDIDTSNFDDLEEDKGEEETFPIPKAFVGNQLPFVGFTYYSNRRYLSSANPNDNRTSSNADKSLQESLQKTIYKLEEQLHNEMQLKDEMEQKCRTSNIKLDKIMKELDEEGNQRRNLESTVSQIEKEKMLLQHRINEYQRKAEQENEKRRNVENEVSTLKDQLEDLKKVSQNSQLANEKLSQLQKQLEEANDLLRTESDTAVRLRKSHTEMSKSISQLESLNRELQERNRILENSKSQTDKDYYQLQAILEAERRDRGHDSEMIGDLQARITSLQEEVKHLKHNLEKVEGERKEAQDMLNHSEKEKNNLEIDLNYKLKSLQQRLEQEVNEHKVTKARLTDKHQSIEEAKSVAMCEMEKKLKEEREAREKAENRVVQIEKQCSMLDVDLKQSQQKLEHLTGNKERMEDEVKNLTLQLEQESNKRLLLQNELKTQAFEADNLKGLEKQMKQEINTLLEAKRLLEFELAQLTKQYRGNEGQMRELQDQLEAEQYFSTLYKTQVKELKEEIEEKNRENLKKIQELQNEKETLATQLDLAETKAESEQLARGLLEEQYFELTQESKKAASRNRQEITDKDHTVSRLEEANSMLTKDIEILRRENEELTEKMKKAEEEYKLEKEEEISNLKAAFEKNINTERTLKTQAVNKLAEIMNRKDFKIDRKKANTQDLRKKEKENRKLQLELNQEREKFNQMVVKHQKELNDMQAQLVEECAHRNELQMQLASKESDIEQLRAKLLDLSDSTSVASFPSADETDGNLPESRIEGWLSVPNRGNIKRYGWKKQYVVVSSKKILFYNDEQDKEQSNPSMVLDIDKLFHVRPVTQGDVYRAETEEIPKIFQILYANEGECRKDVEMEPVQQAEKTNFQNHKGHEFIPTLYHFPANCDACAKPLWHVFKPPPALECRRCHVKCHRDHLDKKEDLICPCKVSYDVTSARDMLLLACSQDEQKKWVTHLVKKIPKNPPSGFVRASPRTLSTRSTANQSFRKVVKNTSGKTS
# Chain of Rho-associated protein kinase 2 (O75116 whole entry, the tested form may be a part): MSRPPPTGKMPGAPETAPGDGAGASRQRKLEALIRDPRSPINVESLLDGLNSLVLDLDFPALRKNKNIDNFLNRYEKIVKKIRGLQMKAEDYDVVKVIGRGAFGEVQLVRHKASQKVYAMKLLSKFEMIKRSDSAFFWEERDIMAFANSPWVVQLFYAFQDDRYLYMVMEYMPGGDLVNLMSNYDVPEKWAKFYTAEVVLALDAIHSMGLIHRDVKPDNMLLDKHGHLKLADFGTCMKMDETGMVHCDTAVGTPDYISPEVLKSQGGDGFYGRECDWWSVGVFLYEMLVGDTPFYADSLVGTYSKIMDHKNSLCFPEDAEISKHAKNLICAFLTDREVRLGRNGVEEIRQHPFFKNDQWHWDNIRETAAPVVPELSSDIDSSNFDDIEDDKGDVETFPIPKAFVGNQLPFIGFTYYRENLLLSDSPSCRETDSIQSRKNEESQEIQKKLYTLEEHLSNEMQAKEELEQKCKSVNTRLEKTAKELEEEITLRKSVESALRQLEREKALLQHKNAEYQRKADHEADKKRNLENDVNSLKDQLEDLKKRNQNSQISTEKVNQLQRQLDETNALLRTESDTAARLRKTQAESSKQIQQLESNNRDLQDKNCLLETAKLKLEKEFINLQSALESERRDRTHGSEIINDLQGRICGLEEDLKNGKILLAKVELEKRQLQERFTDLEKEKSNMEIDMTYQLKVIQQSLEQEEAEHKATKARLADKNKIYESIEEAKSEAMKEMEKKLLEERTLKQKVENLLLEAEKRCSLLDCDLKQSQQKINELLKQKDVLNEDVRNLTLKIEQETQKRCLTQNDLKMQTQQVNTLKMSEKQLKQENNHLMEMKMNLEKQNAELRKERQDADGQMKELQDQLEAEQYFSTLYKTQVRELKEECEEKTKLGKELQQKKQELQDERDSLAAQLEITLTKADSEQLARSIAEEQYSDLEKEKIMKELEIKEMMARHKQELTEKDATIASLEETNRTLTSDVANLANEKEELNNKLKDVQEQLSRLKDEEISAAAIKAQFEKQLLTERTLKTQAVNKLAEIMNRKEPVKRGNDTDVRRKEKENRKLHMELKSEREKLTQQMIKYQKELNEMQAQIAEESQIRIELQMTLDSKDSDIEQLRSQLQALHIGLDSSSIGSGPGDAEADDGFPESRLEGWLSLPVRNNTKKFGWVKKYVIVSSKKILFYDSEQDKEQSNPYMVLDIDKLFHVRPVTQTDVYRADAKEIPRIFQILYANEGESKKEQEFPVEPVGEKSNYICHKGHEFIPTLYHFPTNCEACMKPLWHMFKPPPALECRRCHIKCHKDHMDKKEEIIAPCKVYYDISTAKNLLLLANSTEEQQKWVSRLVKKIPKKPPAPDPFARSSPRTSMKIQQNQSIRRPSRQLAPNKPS
Structure (SMILES),concentration at 0.5 h [1],IC50 [2],IC50 [3],solubility [4],MTD (Cynomolgus monkey [5]),Activity (Cynomolgus monkey [6]),Activity (Cavia porcellus [7]),concentration at 0.5 h [8],Activity (Cavia porcellus [9]),Activity (Cavia porcellus [10]),Activity (Cavia porcellus [11]),Activity (Homo sapiens [12]),concentration at 0.5 h [13],Activity (Homo sapiens [14])
CN(C)CC(O)CN1CCN(c2nc(-c3ccncc3)cnc2N2CCCC2)CC1 (configuration not stated),950 nM,76 nM,288 nM,soluble,1%,14%,58%,,,,,,,
CC(=O)NCC(O)CN1CCN(c2nc(-c3ccncc3)cnc2N2CCCC2)CC1 (configuration not stated),,68 nM,350 nM,soluble,0.33%,9%,,4800 nM,42%,,,,,
CC(=O)NCCCN1CCN(c2nc(-c3ccncc3)cnc2N2CCCC2)CC1,8300 nM,75 nM,346 nM,soluble,0.5%,24%,,,,66%,,,,
c1nc(N2CCCC2)c(N2CCCNCC2)nc1-c1cc2cn[nH]c2cn1,680 nM,65 nM,203 nM,,0.33%,26%,,,,,30 µg,,,
c1cc2[nH]ncc2cc1-c1cncc(N2CCCNCC2)n1,,24 nM,105 nM,,0.33%,30%,,1000 nM,,,30 µg,,,
Cc1n[nH]c2ccc(-c3cncc(N4CCCNCC4)n3)cc12,,36 nM,140 nM,,0.33%,31%,,200 nM,,,,,,
CNC(CC1CCCCC1)C(=O)Nc1ccc2cnccc2c1 (configuration not stated),,,,,,,,,,,,20%,,
OCCN1CCN(c2nc(-c3ccncc3)cnc2N2CCCC2)CC1,,39 nM,570 nM,soluble,1%,26%,,,33%,,,,3800 nM,
C[C@@H](N)c1ccc(C(=O)Nc2ccnc3[nH]ccc23)cc1 [Y-39983],,,,soluble,0.1%,<15%,,,,,3 µg,,4400 nM,22%
